Assay results: US20080194585A1, “Fungicidal Pyrazine Derivatives” (priority 2005, published 2008)
Marks after values point to notes of the source that are not given here.

What was measured:
[1] = test system: Colletotrichum orbiculare; assay: Test B: cucumber Colletotrichum anthracnose, preventive spray on cucumber seedlings
[2] = test system: Sclerotinia sclerotiorum; assay: Test C: cucumber white mold, preventive spray on cucumber seedlings
[3] = test system: Septoria nodorum; assay: Test H: wheat glum blotch, preventive spray on wheat seedlings
Procedure: (the causal agent of wheat glum blotch) and incubated in a saturated atmosphere at 20° C. for 48 h, and then moved to a growth chamber at 22° C. for 5 days, after which disease ratings were made.

[4] = test system: Erysiphe graminis f. sp. tritici; assay: Test L: wheat powdery mildew, preventive spray on wheat seedlings
[5] = test system: Plasmopara viticola; assay: Test D: grape downy mildew, spray after inoculation of grape seedlings; format: in vivo
From the text: Upon removal, disease ratings were made. […] A dash (-) indicates no test results.

[6] = test system: Pythium aphanidermatum; assay: Test A: bluegrass pythium blight, preventive spray on bluegrass seedlings
[7] = test system: Botrytis cinerea; assay: Test E: tomato botrytis, preventive spray on tomato seedlings
[8] = test system: Puccinia recondita f. sp. tritici; assay: Test K: wheat leaf rust, preventive spray on wheat seedlings
[9] = test system: Rhizoctonia oryzae; assay: Test G: turf brown patch, preventive spray on creeping bent grass seedlings
Procedure: (the causal agent of turf brown patch) and incubated in a saturated atmosphere at 27° C. for 24 h, and then moved to a growth chamber at 27° C. for 5 days, after which disease ratings were made.

[10] = test system: fusarium graminearium; assay: Test I: wheat head scab, preventive spray on wheat seedlings; details: Fusarium, in Triticum aestivum, topical, 192 h, read-out: Test I disease control rating, 200 ppm
Procedure: (the causal agent of wheat head scab) and incubated in a saturated atmosphere at 20° C. for 72 h, and then moved to a growth chamber at 22° C. for 5 days, after which disease ratings were made.

[11] = test system: Phytophthora infestans; assay: whole plant or invertebrate; format: in vivo
[12] = test system: Septoria tritici; assay: Test J: wheat leaf blotch, preventive spray on wheat seedlings; format: in vivo
From the text: A dash (-) indicates no test results.

[13] = 40 ppm (marked *), 100 = 100% disease control, 0 = no control
[14] = 200 ppm, 100 = 100% disease control, 0 = no control

SMILES | Test B disease control rating ([1]; 40 ppm (*)) | Test C disease control rating ([2]; 40 ppm (*)) | Test F disease control rating ([11]; 40 ppm (*)) | Test H disease control rating ([3]; 40 ppm (*)) | Test J disease control rating ([12]; 40 ppm (*)) | Test L disease control rating ([4]; 40 ppm (*)) | Test D disease control rating ([5]; 40 ppm (*)) | Test A disease control rating ([6]; 40 ppm (*)) | Test E disease control rating ([7]; 40 ppm (*)) | Test K disease control rating ([8]; 40 ppm (*)) | Test G disease control rating ([9]; 40 ppm (*)) | further results
CC(C)Cn1c(-c2c(F)cccc2F)c(Cl)nc(C#N)c1=O [Compound 5, 6-Chloro-5-(2,6-difluorophenyl)-3,4-dihydro-4-(2-methylpropyl)-3-oxopyrazinecarbonitrile] | – | – | – | – | – | – | – | – | – | – | – | pest or weed control at 200 ppm ([1]; Colletotrichum orbiculare, in Cucumis sativus, 144 h, read-out: Test B disease control rating, 200 ppm): 33%; pest or weed control at 200 ppm ([2]; Sclerotinia sclerotiorum, in Cucumis sativus, 168 h, read-out: Test C disease control rating, 200 ppm): 0%; pest or weed control at 200 ppm ([3]; Parastagonospora nodorum, in Triticum aestivum, topical, 168 h, read-out: Test H disease control rating, 200 ppm): 0%; pest or weed control at 200 ppm ([4]; Blumeria graminis, in Triticum aestivum, 168 h, read-out: Test L disease control rating, 200 ppm): 97%; pest or weed control at 200 ppm ([5]; Plasmopara viticola, 168 h, 200 ppm, read-out: Test D disease control rating): 24%; pest or weed control at 200 ppm ([6]; Pythium aphanidermatum, 120 h, read-out: Test A disease control rating): 71%; pest or weed control at 200 ppm ([7]; Botrytis cinerea, in Solanum lycopersicum, topical, 72 h, read-out: Test E disease control rating): 71%; pest or weed control at 200 ppm ([8]; Puccinia recondita, in Triticum aestivum, 192 h, read-out: Test K disease control rating): 99%; pest or weed control at 200 ppm ([9]; Waitea circinata, in Agrostis stolonifera, topical, 144 h, read-out: Test G disease control rating, 200 ppm): 26%; pest or weed control at 200 ppm [10]: 20%
CCCCn1c(-c2c(F)cc(F)cc2F)c(Cl)nc(-n2nccc2C)c1=O [compound 239] | 0* % | 0* % | 0* % | 0* % | 19* % | 0* % | 0* % | 0* % | 0* % | 0* % | 0* % | –
CCCCn1c(-c2c(F)cc(F)cc2F)c(Cl)nc(-c2ccccn2)c1=O [compound 240] | 9* % | 0* % | 0* % | 78* % | 93* % | 98* % | 0* % | 0* % | 100* % | 67* % | 0* % | –
Cc1ccn(-c2nc(Cl)c(-c3c(F)cccc3F)n(CC(C)C)c2=O)n1 [compound 241] | 92* % | 0* % | 0* % | 95* % | 100* % | 93* % | 33* % | 0* % | 100* % | 100* % | 85* % | –
Cc1ccn(-c2nc(C)c(-c3c(F)cccc3F)n(CC(C)C)c2=O)n1 [compound 243] | 0* % | 0* % | 0* % | 0* % | 86* % | 98* % | 0* % | 0* % | 100* % | 45* % | 68* % | –
CC(C)Cn1c(-c2cccnc2Cl)c(Cl)nc(-n2cccn2)c1=O [compound 244] | 0* % | 0* % | 0* % | 0* % | 9* % | 0* % | 31* % | 0* % | 42* % | 8* % | 0* % | –
COc1cccc(-c2c(Cl)nc(-n3cncn3)c(=O)n2CC(C)C)c1 [compound 245] | 0* % | 0* % | 0* % | 0* % | 46* % | 0* % | 0* % | 0* % | 0* % | 0* % | 0* % | –
COc1cccc(-c2c(Cl)nc(-n3cccn3)c(=O)n2CC(C)C)c1 [compound 246] | 0* % | 0* % | 0* % | 0* % | 26* % | 78* % | – | 0* % | 99* % | 0* % | 0* % | Test D disease control rating ([5]; 200 ppm): 9%
Cc1cccc(-c2c(Cl)nc(-n3cncn3)c(=O)n2CC(C)C)c1 [compound 247] | 0* % | 0* % | 0* % | 0* % | 35* % | 0* % | 0* % | 0* % | 0* % | 0* % | 0* % | –
Cc1cccc(-c2c(Cl)nc(-n3cccn3)c(=O)n2CC(C)C)c1 [compound 248] | 0* % | 0* % | 0* % | 0* % | 44* % | 0* % | 0* % | 0* % | 66* % | 0* % | 0* % | –
CC(C)Cn1c(-c2cccc(C#N)c2)c(Cl)nc(-n2cncn2)c1=O [compound 249] | – | – | – | – | – | – | – | – | – | – | – | Test B disease control rating [1, 13]: 0* %; Test C disease control rating [2, 13]: 0* %; Test F disease control rating [11, 13]: 0* %; Test H disease control rating [3, 13]: 0* %; Test J disease control rating [12, 13]: 26* %; Test L disease control rating [4, 13]: 0* %; Test D disease control rating [5, 13]: 0* %; Test A disease control rating [6, 13]: 0* %; Test E disease control rating [7, 13]: 0* %; Test K disease control rating [8, 13]: 0* %; Test G disease control rating [9, 13]: 0* %
CC(C)Cn1c(-c2cccc(C#N)c2)c(Cl)nc(-n2cccn2)c1=O [compound 250] | – | – | – | – | – | – | – | – | – | – | – | Test B disease control rating [1, 13]: 0* %; Test C disease control rating [2, 13]: 0* %; Test F disease control rating [11, 13]: 0* %; Test H disease control rating [3, 13]: 0* %; Test J disease control rating [12, 13]: 30* %; Test L disease control rating [4, 13]: 0* %; Test D disease control rating [5, 13]: 0* %; Test A disease control rating [6, 13]: 0* %; Test E disease control rating [7, 13]: 0* %; Test K disease control rating [8, 13]: 0* %; Test G disease control rating [9, 13]: 0* %
CC(C)Cn1c(-c2cccc3c2OCO3)c(Cl)nc(-n2cccn2)c1=O [compound 251] | – | – | – | – | – | – | – | – | – | – | – | Test B disease control rating [1, 14]: 0%; Test C disease control rating [2, 14]: 0%; Test F disease control rating [11, 14]: 0%; Test H disease control rating [3, 14]: 82%; Test J disease control rating [12, 14]: 97%; Test L disease control rating [4, 14]: 0%; Test D disease control rating [5, 14]: 0%; Test A disease control rating [6, 14]: 0%; Test E disease control rating [7, 14]: 99%; Test K disease control rating [8, 14]: 17%; Test G disease control rating [9, 14]: 21%
CC(C)Cn1c(-c2ccc3c(c2)OC(F)(F)O3)c(Cl)nc(-n2cccn2)c1=O [compound 252] | – | – | – | – | – | – | – | – | – | – | – | Test B disease control rating [1, 14]: 0%; Test C disease control rating [2, 14]: 0%; Test F disease control rating [11, 14]: 0%; Test H disease control rating [3, 14]: 0%; Test J disease control rating [12, 14]: 53%; Test L disease control rating [4, 14]: 0%; Test D disease control rating [5, 14]: 0%; Test A disease control rating [6, 14]: 0%; Test E disease control rating [7, 14]: 0%; Test K disease control rating [8, 14]: 0%; Test G disease control rating [9, 14]: 0%
CC(C)Cn1c(-c2cc3c(cc2Cl)OCO3)c(Cl)nc(-n2cccn2)c1=O [compound 253] | – | – | – | – | – | – | – | – | – | – | – | Test B disease control rating [1, 14]: 0%; Test C disease control rating [2, 14]: 0%; Test F disease control rating [11, 14]: 0%; Test H disease control rating [3, 14]: 0%; Test J disease control rating [12, 14]: 66%; Test L disease control rating [4, 14]: 0%; Test D disease control rating [5, 14]: 0%; Test A disease control rating [6, 14]: 0%; Test E disease control rating [7, 14]: 0%; Test K disease control rating [8, 14]: 0%; Test G disease control rating [9, 14]: 0%
Cc1cc(C)c(-c2c(Cl)nc(-n3cccn3)c(=O)n2CC(C)C)c(C)c1 [compound 254] | – | – | – | – | – | – | – | – | – | – | – | Test B disease control rating [1, 13]: 0* %; Test C disease control rating [2, 13]: 0* %; Test F disease control rating [11, 13]: 0* %; Test H disease control rating [3, 13]: 0* %; Test J disease control rating [12, 13]: 99* %; Test L disease control rating [4, 13]: 54* %; Test D disease control rating [5, 13]: 0* %; Test A disease control rating [6, 13]: 0* %; Test E disease control rating [7, 13]: 94* %; Test K disease control rating [8, 13]: 59* %; Test G disease control rating [9, 13]: 41* %
